Measured values: patent US9116112B2, “UV protective skin treatment compositions and screening methods” (JR Chem LLC, priority 2011, dated 2015)
Several values for one entry are separate records, joined by “and”; a condition that tells them apart may be missing. Equal values may be shown once.

What was measured:
[1] = Briggs-Rauscher Oscillation Reaction Method (BROM) antioxidant capacity; format: biochemical; conditions: for calculated BROM value at product concentration: Arbutin at 0.2 wt. %, BHT at 0.1 wt. %; for BROM value of individual antioxidant: text b80, rounded values used for calculation; for BROM: Table 2, common antioxidants present in body fluids and tissues
[2] = test system: Balb/c 3T3 cells; assay: 3T3 Neutral Red Uptake Phototoxicity Test (3T3 NRU PT); format: cell-based, murine; conditions: positive control, dose dates 03/10/11, 03/15/11, 03/22/11
From the text: The 3T3 Neutral Red Phototoxicity Test (3T3 NRU PT) was used to assess toxicological performance. It is a relatively new assay that was adopted by regulatory agencies such as OECD and FDA as an accepted method for the assessment of phototoxic potential of test substances. It is an in-vitro toxicological assessment test used to determine cytotoxic and photo(cyto)toxicity effect of a test article to murine fibroblasts in the presence or absence of UVA light (99% UVA/1% UVB). The 3T3 Neutral Red Uptake Phototoxicity Assay (3T3 NRU PT) can be utilized to identify the phototoxic effect of a test substance induced by the combination of test substance and light and is based on the comparison of the cytotoxic effect of a test substance when tested after the exposure and in the absence of exposure to a non-cytotoxic dose of UVA/vis light. Cytotoxicity is expressed as a concentration dependent reduction of the uptake of the vital dye—Neutral Red. […]
For both the range finding screen and the definitive test, Balb/c 3T3 cells were seeded in the central 60 wells of duplicate 96-well microplates per test article and maintained in culture for 24 hours. […] After UV irradiation, the treatment medium was replaced with culture medium and after 24 hours, cell viability was determined by neutral red uptake for 3 hours. […]

[3] = Table 2, Water or Lipid; cited from earlier work

OC[C@H]1O[C@@H](Oc2ccc(O)cc2)[C@H](O)[C@@H](O)[C@@H]1O (racemic) [Arbutin Racemic mixture, Arbutin]
Result [s/μg] (BROM by Strength) ([1]; Table 3, solvent 50% Ethanol): 47 s/µg
Result [s/μg] (BROM by Strength) ([1]; Table 3, solvent Water): 49.4 s/µg

OC[C@H]1O[C@@H](Oc2ccc(O)cc2)[C@H](O)[C@@H](O)[C@@H]1O [8 Arbutin]
Result [s/μg] (BROM by Strength) ([1]; Table 3, solvent Water): 40.53 s/µg

NC(=O)NC1NC(=O)NC1=O (centres unmarked) [Allantoin]
Result [s/μg] (BROM by Strength) ([1]; Table 3, solvent Water): 0 s/µg

OC[C@H]1O[C@@H](Oc2ccc(O)cc2)[C@H](O)[C@@H](O)[C@@H]1O [Arbutin]
calculated BROM value at product concentration [1]: 0.1
BROM value of individual antioxidant [1]: 50 s/µg

O=C1O[C@H]([C@@H](O)CO)C(O)=C1O [Ascorbic Acid, Ascorbic acid]
BROM value [1]: 0.00105 s/µg
electron scavenging capacity (BROM) [1]: do not show measurable electron scavenging capacity
BROM [1]: 0.00105 s/µg
Result [s/μg] (BROM by Strength) ([1]; Table 3, solvent Water): 0.00105 s/µg

O=C1O[C@H]([C@@H](O)CO)C(O)=C1O[C@H]1O[C@H](CO)[C@@H](O)[C@H](O)[C@H]1O [Ascorbyl Glucoside]
Result [s/μg] (BROM by Strength) ([1]; Table 3, solvent Water): No clear

CC(C)c1c(C(=O)Nc2ccccc2)c(-c2ccccc2)c(-c2ccc(F)cc2)n1CC[C@@H](O)C[C@@H](O)CC(=O)O [Atorvastatin (Lipitor), Atorvastatin]
Result [s/μg] (BROM by Strength) ([1]; Table 3, solvent Ethanol): 8.41 s/µg

Cc1cc(C(C)(C)C)c(O)c(C(C)(C)C)c1 [BHT, butylatedhydroxytoluene]
calculated BROM value at product concentration [1]: 0.03
Result [s/μg] (BROM by Strength) ([1]; Table 3, solvent 50% Ethanol): 34.53 s/µg
Result [s/μg] (BROM by Strength) ([1]; Table 3, solvent Ethanol): 29.4 s/µg
BROM value of individual antioxidant [1]: 30 s/µg

CN(C)CCCN1c2ccccc2Sc2ccc(Cl)cc21 [CPZ, Chloropromazine]
EC50 +SSL ([2]; +SSL): 0.394 µg/mL and 0.725 µg/mL and 0.682 µg/mL
EC50 No SSL ([2]; dark): 19.592 µg/mL and 24.805 µg/mL and 26.457 µg/mL

O=C[C@H](O)[C@@H](O)[C@H](O)[C@H](O)CO [D-Glucose]
Result [s/μg] (BROM by Strength) ([1]; Table 3, solvent Water): 0 s/µg

N[C@@H](CCC(=O)N[C@@H](CS)C(=O)NCC(=O)O)C(=O)O [Glutathione]
BROM [1]: 0.000991 s/µg
Result [s/μg] (BROM by Strength) ([1]; Table 3, solvent Water): 0.000991 s/µg
Solubility [3]: Water

COc1ccc([C@@H]2CC(=O)c3c(O)cc(O[C@@H]4O[C@H](CO[C@@H]5O[C@@H](C)[C@H](O)[C@@H](O)[C@H]5O)[C@@H](O)[C@H](O)[C@H]4O)cc3O2)cc1O [Hesperidin]
Result [s/μg] (BROM by Strength) ([1]; Table 3, solvent Water): 5.38 s/µg

Oc1ccc(O)cc1 [Hydroquinone]
Result [s/μg] (BROM by Strength) ([1]; Table 3, solvent 50% Ethanol): 1.1 s/µg
Result [s/μg] (BROM by Strength) ([1]; Table 3, solvent Water): 1.31 s/µg

COc1ccc(C(=O)c2ccccc2)c(O)c1 [Oxybenzone]
Result [s/μg] (BROM by Strength) ([1]; Table 3, solvent Ethanol): 0 s/µg

Oc1cccc(O)c1 [Resorcinol]
Result [s/μg] (BROM by Strength) ([1]; Table 3, solvent Water): 30.39 s/µg

CCCCC(CC)COC(=O)C(C#N)=C(c1ccccc1)c1ccc(OC)cc1 (centres unmarked) [Solastay S1]
Result [s/μg] (BROM by Strength) ([1]; Table 3, solvent Ethanol): 0 s/µg

CC(C)(C)c1cc(O)ccc1O [Tert-Butylhydroquinone]
Result [s/μg] (BROM by Strength) ([1]; Table 3, solvent Ethanol): 0.13 s/µg

CC1=C(/C=C/C(C)=C/C=C/C(C)=C/C(=O)O)C(C)(C)CCC1 [Tretinoin]
BROM [1]: 0 s/µg
Result [s/μg] (BROM by Strength) ([1]; Table 3, solvent Ethanol): 0 s/µg

Cc1c(C)c2c(c(C)c1O)CCC(C)(C(=O)O)O2 (centres unmarked) [Trolox]
electron scavenging capacity (BROM) [1]: do not show measurable electron scavenging capacity
Result [s/μg] (BROM by Strength) ([1]; Table 3, solvent Ethanol): 0.021 s/µg

COc1c(O)c(C)c(C/C=C(\C)CC/C=C(\C)CC/C=C(\C)CC/C=C(\C)CC/C=C(\C)CC/C=C(\C)CC/C=C(\C)CC/C=C(\C)CC/C=C(\C)CCC=C(C)C)c(O)c1OC [Ubiquinol (coenzyme Q10), Ubiquinol]
BROM [1]: 0 s/µg
Solubility [3]: Lipid

O=c1[nH]c(=O)c2[nH]c(=O)[nH]c2[nH]1 [Uric Acid, Uric acid]
BROM [1]: 9.14 s/µg
Result [s/μg] (BROM by Strength) ([1]; Table 3, solvent Water): 9.14 s/µg
Solubility [3]: Water

CC(=O)Oc1c(C)c(C)c2c(c1C)CCC(C)(CCC[C@H](C)CCC[C@H](C)CCCC(C)C)O2 (some centres unmarked) [Vitamin E Acetate]
electron scavenging capacity (BROM) [1]: do not show measurable electron scavenging capacity
Result [s/μg] (BROM by Strength) ([1]; Table 3, solvent Ethanol): 0 s/µg

Cc1c(C)c2c(c(C)c1O)CC[C@@](C)(CCC[C@H](C)CCC[C@H](C)CCCC(C)C)O2 [α-Tocopherol (vitamin E), α-Tocopherol]
BROM value [1]: 0 s/µg
BROM [1]: 0 s/µg
Solubility [3]: Lipid

Carotenes
Solubility [3]: Lipid
